The record followed here is US9187424B1, “Aryl dihydropyridinones and piperidinone MGAT2 inhibitors” (Bristol-Myers Squibb Company, priority 2011, dated 2015).

The experiment concerns the target Human MGAT-2 (Homo sapiens (Human), UniProt Q3SYC2). Description: MGAT LCMS Assay (human MGAT-2).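 Also: diolein product quantified by LC/MS with positive APCI, expressed as peak area ratio versus an internal standard, and this ratio used to derive IC50.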 It is filed as biochemical. Conditions: human MGAT-2 membranes expressed in Sf9 cells; 2-oleoylglycerol and oleoyl-Coenzyme A; read-out: h-MGAT2 IC50 (nM) LCMS Assay.

Human MGAT-2, sequence (Q3SYC2 whole entry): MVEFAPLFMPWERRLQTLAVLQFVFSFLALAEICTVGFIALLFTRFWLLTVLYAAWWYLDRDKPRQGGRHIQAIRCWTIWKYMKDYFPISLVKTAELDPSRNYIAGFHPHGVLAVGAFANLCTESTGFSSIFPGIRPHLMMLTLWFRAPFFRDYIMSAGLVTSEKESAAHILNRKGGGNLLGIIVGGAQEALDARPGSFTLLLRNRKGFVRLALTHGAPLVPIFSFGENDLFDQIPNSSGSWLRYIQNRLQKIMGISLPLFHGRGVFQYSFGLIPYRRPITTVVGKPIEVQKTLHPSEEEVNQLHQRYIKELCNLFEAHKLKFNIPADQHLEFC

One may read the IC50 as the midpoint of a concentration-inhibition curve. Regarding `CCOc1ccc(C2=C(C#N)C(=O)NC(c3ccc(OCCCC(F)(F)F)cc3)(C(F)(F)F)C2)cc1Cl` (stereo not shown) [Example 226], the IC50 was determined as 206 nM. With `COCc1ccc(C2=C(c3nn[nH]n3)C(=O)NC(c3ccc(OCCCC(F)(F)F)cc3)(C(F)(F)F)C2)cc1` (stereo not shown) [Example 202], the IC50 was 89 nM. For the molecule `Cc1ccc(C2=C(NC(=O)c3ccc(F)cc3Cl)C(=O)NC(c3ccc(OCCCC(F)(F)F)cc3)(C(F)(F)F)C2)cc1` (stereo not shown) [Example 170], the IC50 came to 210 nM. Then `O=C1NC(c2ccc(OCCCC(F)(F)F)cc2)(C(F)(F)F)CC(c2ccc3c(c2)OCCO3)=C1c1nn[nH]n1` (stereo not shown) [Example 209], with 37 nM; and `Cc1ccc(C2=C(Oc3ccccc3)C(=O)N[C@@](c3ccc(OCCCC(F)(F)F)cc3)(C(F)(F)F)C2)cc1` [Example 106, (S)-3-Phenoxy-4-p-tolyl-6-(4-(4,4,4-trifluorobutoxy)phenyl)-6-(trifluoromethyl)-5,6-dihydropyridin-2(1H)-one], with 552 nM.

Regarding `Cc1ccc(C2=C(NC(=O)c3ccccc3F)C(=O)NC(c3ccc(OCCCC(F)(F)F)cc3)(C(F)(F)F)C2)cc1` (stereo not shown) [Example 249], the IC50 turned out to be 185 nM. In the case of `O=C1NC(c2ccc(OCCCC(F)(F)F)cc2)(C(F)(F)F)CC(c2ccc(Br)cc2)=C1c1nn[nH]n1` (stereo not shown) [Example 234] it was 40 nM; in that of `Cc1ccc(C2=C(C#N)C(=O)NC(c3cnn(CCCCC(F)(F)F)c3)(C(F)(F)F)C2)cc1` (stereo not shown) [Example 227], 63 nM.

Consider `Cc1ccc(C2=C(C#N)C(=O)NC(c3ccc(OCCCCCC(F)(F)F)cc3)(C(F)(F)F)C2)cc1` (stereo not shown) [Example 184], for which the IC50 stood at 76 nM.

On to `Cc1ccc(C2=C(NC(=O)c3cccc(Cl)c3)C(=O)NC(c3ccc(OCCCC(F)(F)F)cc3)(C(F)(F)F)C2)cc1` (stereo not shown) [Example 169], for which the IC50 came to 421 nM. On to `Cc1ccc(C2=C(C#N)C(=O)NC(c3ccc(OCCCC(F)(F)F)cc3)(C(F)(F)F)C2)cc1C` (stereo not shown) [Example 217], for which the IC50 was 118 nM. Then `O=C1NC(c2ccc(OCCCC(F)(F)F)cc2)(C(F)(F)F)CC(c2ccc3c(c2)CCO3)=C1c1nn[nH]n1` (stereo not shown) [Example 237], with 130 nM.

As for `O=C1NC(c2ccc(OCCCCCC(F)(F)F)c(F)c2)(C(F)(F)F)CC(c2ccc3ccccc3c2)=C1c1nn[nH]n1` (stereo not shown) [Example 304], the IC50 amounted to 6 nM. Take `Cc1ccc(C2=C(NC(=O)c3cn(C)nn3)C(=O)NC(c3ccc(OCCCC(F)(F)F)cc3)(C(F)(F)F)C2)cc1` (stereo not shown) [Example 246]: the IC50 came to 36 nM.

In the case of `CCCCCCc1cnc(C2(C)CC(c3ccc(C)cc3)=C(C#N)C(=O)N2)o1` (stereo not shown) [Example 108, 6-(5-Hexyloxazol-2-yl)-6-methyl-2-oxo-4-p-tolyl-1,2,5,6-tetrahydropyridine-3-carbonitrile], the half-inhibitory concentration (IC50) stood at 189 nM. As for `COc1ccc(NC(=O)C2=C(c3ccc(C)cc3)CC(C)(C(=O)NCCCc3ccccc3)NC2=O)cc1` (stereo not shown) [Example 175], the IC50 is 264 nM. Take `CCCCCCC#Cc1ccc(C2(C(F)(F)F)CC(c3ccc(OC(F)F)cc3)=C(c3nn[nH]n3)C(=O)N2)cc1F` (stereo not shown) [Example 307]: the IC50 is 3 nM. Regarding `COc1ccc(NC(=O)C2=C(c3ccc(C)cc3)CC(C)(C(=O)NCCCC(F)(F)F)NC2=O)cc1` (stereo not shown) [Example 102, N^5-(4-Methoxyphenyl)-2-methyl-6-oxo-4-p-tolyl-N^2-(4,4,4-trifluorobutyl)-1,2,3,6-tetrahydropyridine-2,5-dicarboxamide], the IC50 amounted to 1090 nM.

In the case of `Cc1ccc(C2=C(NC(=O)c3cc(-c4cccc(F)c4)no3)C(=O)NC(c3ccc(OCCCC(F)(F)F)cc3)(C(F)(F)F)C2)cc1` (stereo not shown) [Example 190], the IC50 is 155 nM.

For the molecule `COc1ccc(NC(=O)C2=C(c3ccc(C)cc3)C(F)(F)C(c3ccc(OC)cc3)(C(F)(F)F)NC2=O)cc1` (stereo not shown) [Example 181], the IC50 was 2050 nM. Turning to `COc1ccc(C(=O)NC2=C(c3ccc(C)cc3)CC(c3ccc(OCCCC(F)(F)F)cc3)(C(F)(F)F)NC2=O)nn1` (stereo not shown) [Example 232], the IC50 came out at 6 nM. Turning to `COc1ccc(C2=C(c3nn[nH]n3)C(=O)NC(c3ccc(OCCCC(F)(F)F)cc3)(C(F)(F)F)C2)cc1` (stereo not shown) [Example 244], the 50% inhibitory concentration (IC50) was 61 nM. As to `COc1ccc(C(=O)NC2=C(c3ccc(C)cc3)C(F)(F)C(c3ccc(OCCCCC(F)(F)F)cc3)(C(F)(F)F)NC2=O)cc1` (stereo not shown) [Example 164], the IC50 was 162 nM.

With `CCOc1ccc(C2=C(c3nn[nH]n3)C(=O)NC(c3ccc(OCCCC(F)(F)F)cc3)(C(F)(F)F)C2)cc1` (stereo not shown) [Example 208], the IC50 was found to be 30 nM. For the molecule `CCCCCCCCNC(=O)C1(C)CC(c2ccc(C)cc2)=C(C#N)C(=O)N1` (stereo not shown) [Example 177], the IC50 came to 399 nM. Take `CCCCCC#CC1(C(F)(F)F)CC(c2ccc(C)cc2)=C(c2cn[nH]n2)C(=O)N1` (stereo not shown) [Example 194]: the IC50 amounted to 6 nM. With `N#CC1=C(c2ccc(Cl)c(Cl)c2)CC(c2ccc(OCCCC(F)(F)F)cc2)(C(F)(F)F)NC1=O` (stereo not shown) [Example 222], the IC50 worked out at 733 nM. In the case of `Cc1ccc(C2=C(NC(=O)CS(C)(=O)=O)C(=O)NC(c3ccc(OCc4ccccc4)cc3)(C(F)(F)F)C2)cc1` (stereo not shown) [Example 279] it was 2 nM; in that of `CCCCCCNC(=O)c1ccc(C2(C(F)(F)F)CC(c3ccc(C)cc3)=C(C(=O)Nc3ccc(OC)cc3)C(=O)N2)cc1` (stereo not shown) [Example 155], 484 nM; in that of `O=C(Nc1cccnc1)C1=C(c2ccc(OC(F)F)cc2)CC(c2ccc(OCCCC(F)(F)F)cc2)(C(F)(F)F)NC1=O` (stereo not shown) [Example 280], 2 nM. For `CCNC(=O)NC1=C(c2ccc(OCC(F)F)cc2)CC(c2ccc(OCCCC(F)(F)F)cc2)(C(F)(F)F)NC1=O` (stereo not shown) [Example 254], the IC50 came to 170 nM. Regarding `Cc1ccc(C2=C(C#N)C(=O)NC(c3ccc(OCCCC(F)(F)F)cc3)(C(F)(F)F)C2)cc1F` (stereo not shown) [Example 219], the IC50 came out at 172 nM. In the case of `O=C1NC(c2ccc(OCCCCCC(F)(F)F)cc2)(C(F)(F)F)CC(c2ccc(OCC(F)F)cc2)=C1c1nn[nH]n1` (stereo not shown) [Example 248] it was 8 nM; in that of `Cc1ccc(C2=C(c3cn[nH]n3)C(=O)NC(C#CCCc3ccccc3)(C(F)(F)F)C2)cc1` (stereo not shown) [Example 198], 16 nM.

On to `COc1ccc(NC(=O)C2=C(c3ccc(C)cc3)CC(C)(C(=O)NCC(C)C)NC2=O)cc1` (stereo not shown) [Example 188], for which the IC50 amounted to 1520 nM. In the case of `CCOc1ccc(C2=C(c3nn[nH]n3)C(=O)NC(c3ccc(OCCCC(F)(F)F)cc3)(C(F)(F)F)C2)cc1` (stereo not shown) [Example 92] it was 136 nM. As to `CCOc1ccc(C2=C(C#N)C(=O)NC(c3ccc(OCCCC(F)(F)F)cc3)(C(F)(F)F)C2)cc1F` (stereo not shown) [Example 264], the IC50 came to 46 nM.

Turning to `CCCCCCC#CC1(C(F)(F)F)CC(c2ccc(C)cc2)=C(NC(=O)c2cccnc2)C(=O)N1` (stereo not shown) [Example 300], the IC50 was 11 nM.

Regarding `O=C1NC(c2ccc(OCCCC(F)(F)F)cc2)(C(F)(F)F)CC(c2ccc(-n3cccn3)cc2)=C1c1nn[nH]n1` (stereo not shown) [Example 236], the IC50 turned out to be 489 nM. Then `Cc1ccc(C2=C(c3cn[nH]n3)C(=O)NC(C#CCCC(C)C)(C(F)(F)F)C2)cc1` (stereo not shown) [Example 199], with 16 nM; and `Cc1ccc(C2=C(c3nn[nH]n3)C(=O)NC(c3ccc(OCCCCC(F)(F)F)cc3F)(C(F)(F)F)C2)cc1` (stereo not shown) [Example 278], with 2 nM; and `Cc1ccc(C2=C(c3nn[nH]n3)C(=O)NC(c3cnn(CCCCC(F)(F)F)c3)(C(F)(F)F)C2)cc1` (stereo not shown) [Example 12, 3-(2H-Tetrazol-5-yl)-4-p-tolyl-6-(trifluoromethyl)-6-(1-(5,5,5-trifluoropentyl)-1H-pyrazol-4-yl)-5,6-dihydropyridin-2(1H)-one], with 374 nM. In the case of `CCCCCCC#Cc1ccc(C2(C(F)(F)F)CC(c3ccc(OCC)cc3)=C(c3nn[nH]n3)C(=O)N2)cc1F` (stereo not shown) [Example 308] it was 61 nM. Then `Cc1ccc(C2=C(C#N)C(=O)NC(c3ccc(OCCCC(F)(F)F)cc3)(C(F)(F)F)C2(F)F)cc1` (stereo not shown) [Example 160], with 5400 nM. As to `CCOCc1ccc(C2=C(c3nn[nH]n3)C(=O)NC(c3ccc(OCCCC(F)(F)F)cc3)(C(F)(F)F)C2)cc1F` (stereo not shown) [Example 203], the IC50 came out at 59 nM. In the case of `COc1ccc(C2=C(C#N)C(=O)NC(c3ccc(OCCCC(F)(F)F)cc3)(C(F)(F)F)C23CC3)cc1` (stereo not shown) [Example 14, 8-(4-Methoxyphenyl)-6-oxo-4-(4-(4,4,4-trifluorobutoxyl)phenyl)-4-(trifluoro-methyl)-5-azaspiro[2.5]oct-7-ene-7-carbonitrile] it was 2050 nM; in that of `COc1cc(C2=C(C#N)C(=O)NC(c3ccc(OCCCC(F)(F)F)cc3)(C(F)(F)F)C2)ccc1C` (stereo not shown) [Example 262], 96 nM; in that of `Cc1ccc(C2=C(NC(=O)c3cccnc3)C(=O)NC(c3ccc(OCCCC(F)(F)F)cc3)(C(F)(F)F)C2)cc1` (stereo not shown) [Example 299], 11 nM. Then `CCn1nnc(C2=C(c3ccc(C)cc3)CC(c3ccc(OCCCC(F)(F)F)cc3)(C(F)(F)F)NC2=O)n1` (stereo not shown) [Example 9, 3-(2-Ethyl-2H-tetrazol-5-yl)-4-p-tolyl-6-(4-(4,4,4-trifluorobutoxyl)phenyl)-6-(trifluoromethyl)-5,6-dihydropyridin-2(1H)-one], with 121 nM; and `Cc1ccc(C2=C(c3nn[nH]n3)C(=O)NC(c3ccc(Br)cc3)(C(F)(F)F)C2)cc1` (stereo not shown) [Example 233], with 639 nM; and `Cc1ccc(NC(=O)C2=C(c3ccc(C)cc3)C(F)(F)C(c3ccc(OCCC(F)(F)F)cc3)(C(F)(F)F)NC2=O)cc1` (stereo not shown) [Example 135], with 778 nM. In the case of `Cc1ccc(C2=C(c3nnn[nH]3)C(=O)NC(c3ccc(OCCCC(F)(F)F)cc3)(C(F)(F)F)C2)c(C)c1` (stereo not shown) [Example 156] it was 254 nM; in that of `Cc1ccc(C2=C(n3ccnc3)C(=O)NC(c3ccc(OCCCC(F)(F)F)cc3)(C(F)(F)F)C2)cc1` (stereo not shown) [Example 114], 704 nM. Regarding `COc1ccc(C2=C(C#N)C(=O)NC(c3ccc(OCCCC(F)(F)F)cc3)(C(F)(F)F)C2)cc1F` (stereo not shown) [Example 218], the IC50 came to 166 nM. Turning to `CCOP(=O)(CC(=O)NC1=C(c2ccc(C)cc2)CC(c2ccc(OCCCC(F)(F)F)cc2)(C(F)(F)F)NC1=O)OCC` (stereo not shown) [Example 282], the IC50 turned out to be 3 nM.
